37 compounds from patent US12071404B2, “Aza (indole)-, benzothiophene-, and benzofuran-3-sulfonamides” (UCB Pharma GmbH, priority 2016, dated 2024) can be followed below.

SMILES strings stand for the structures.

GPR17, sequence (Q13304 whole entry): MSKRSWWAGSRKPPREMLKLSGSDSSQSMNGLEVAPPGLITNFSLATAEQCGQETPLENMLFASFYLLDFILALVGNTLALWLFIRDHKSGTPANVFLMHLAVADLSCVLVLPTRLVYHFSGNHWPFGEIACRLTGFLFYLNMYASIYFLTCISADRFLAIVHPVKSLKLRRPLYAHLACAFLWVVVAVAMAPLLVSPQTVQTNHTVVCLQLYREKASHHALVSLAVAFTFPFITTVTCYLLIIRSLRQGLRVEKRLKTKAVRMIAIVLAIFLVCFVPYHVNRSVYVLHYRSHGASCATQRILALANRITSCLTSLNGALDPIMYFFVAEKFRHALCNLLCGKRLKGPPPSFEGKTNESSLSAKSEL

For the assay, the target named is GPR17 (Homo sapiens, UniProt Q13304). In words: Calcium mobilization functional assay (GPR17 Ca2+ assay). It is filed as cell-based. Also on record: host or cells: Flp-In T-REx CHO. The following applies: CHO hGPR17 cells, inhibition of 50 nM MDL29,951, Calcium 5 dye, FLIPR; read-out: Ca2+ assay pIC50 (converted). The procedure:
Flp-In T-REx CHO cells stably expressing human GPR17 receptor (CHO hGPR17) from Evi Kostenis' lab (Bonn University, Germany) were cultured at 37° C. in a humidified atmosphere of 5% CO2. Cells were grown in DMEM with Nutrient Mixture F-12 supplemented with hygromycin B (500 μg/mL) and blasticidin (30 μg/mL). Expression from the Flp-In locus was induced by treatment with doxycycline (1 μg/mL) for 16-20 h prior assays.
GPR17 is a G-protein coupled receptor. GPR17 activation triggers Gq-type G-protein signaling resulting in endoplasmic reticulum calcium (Ca^2+) stores release in cytosol which can be measured using Calcium 5 dye, a fluorescent indicator dye of cytosolic Ca^2+ levels. All Examples were tested in GPR17 Ca^2+ assay to determine (screen) their GPR17 modulating activity.
CHO hGPR17 were defrosted and seeded at a density of 20,000 cells per well into black 384-well plates with clear bottom. Cells were incubated overnight at 37° C. in a humidified atmosphere of 5% CO2. Sixteen to twenty hours after seeding, CHO hGPR17 were loaded for 60 min with Calcium 5 dye, a cytosolic Ca^2+ indicator fluorescent dye, according to manufacturer's instructions. Fluorescent signal relative to cytosolic Ca^2+ concentration was recorded over time at room temperature in FLIPR Tetra reader. […] Then, 50 nM MDL29,951, a GPR17 agonist, was added to the cells. Inhibitory effects of varying concentrations test compounds were measured and resulting plC50s were determined. […] Analysis and curve fitting were performed in ActivityBase XE using XLfit 4-parameter logistic equation y=A+((B−A)/(1+((C/x)^D))) where A, B, C and D stand for minimum y, maximum y, IC50 and slope, respectively.
The activities of the Example compounds tested are depicted in the table in Section B2B below. The activity ranges A, B and C refer to plC50 values in the Ca^2+ assay as follows: “A”: plC50<7.5, “B”: plC50 7.5<x≤ 8.5, “C”: plC50>8.5
In general terms: Calcium assays in cells follow changes in intracellular calcium, usually with a dye or a luminescent sensor.
As for `O=S(=O)(Nc1cc(F)c(F)cc1F)c1c[nH]c2cc(C(F)(F)F)ccc12` [Compound I-54, 6-(trifluoromethyl)-N-(2,4,5-trifluorophenyl)-1H-indole-3-sulfonamide], the IC50 is above 0.0316 µM.
As to `O=S(=O)(Nc1cccc(Cl)n1)c1c[nH]c2cc(Cl)ccc12` [Compound I-57, 6-chloro-N-(6-chloropyridin-2-yl)-1H-indole-3-sulfonamide], the IC50 was above 0.0316 µM.
For the compound `COc1cccc(NS(=O)(=O)c2c[nH]c3cc(Cl)ccc23)n1` [Compound I-58, 6-chloro-N-(6-methoxypyridin-2-yl)-1H-indole-3-sulfonamide], the IC50 was above 0.0316 µM.
As for `N#Cc1ccc(NS(=O)(=O)c2c[nH]c3cc(Cl)ccc23)nc1` [Compound I-61, 6-chloro-N-(5-cyanopyridin-2-yl)-1H-indole-3-sulfonamide], the IC50 is above 0.0316 µM.
`O=S(=O)(Nc1ccc(F)cn1)c1c[nH]c2cc(Cl)ccc12` [Compound I-62, 6-chloro-N-(5-fluoropyriidn-2-yl)-1H-indole-3-sulfonamide]: the IC50 is above 0.0316 µM.
As for `COc1ccc2c(S(=O)(=O)Nc3cccc4nsnc34)c[nH]c2c1` [Compound I-64, N-(2,1,3-benzothiadiazol-4-yl)-6-methoxy-1H-indole-3-sulfonamide], the IC50 is above 0.0316 µM.
In the case of `N#Cc1ccc2c(S(=O)(=O)Nc3cc4c(cc3F)OC(F)(F)O4)c[nH]c2c1` [Compound I-68, 6-cyano-N-(2,2,6-trifluoro-1,3-benzodioxol-5-yl)-1H-indole-3-sulfonamide] it was above 0.0316 µM; in that of `O=S(=O)(Nc1cc2c(cc1F)OC(F)(F)O2)c1c[nH]c2c1ccc1cccnc12` [Compound I-70, N-(2,2,6-trifluoro-1,3-benzodioxol-5-yl)-1H-pyrrolo[3,2-h]quinoline-3-sulfonamide], above 0.0316 µM; in that of `COc1ccc2c(S(=O)(=O)Nc3cc4c(cc3F)OC(F)(F)O4)c[nH]c2c1` [Compound I-71, 6-methoxy-N-(2,2,6-trifluoro-1,3-benzodioxol-5-yl)-1H-indole-3-sulfonamide], above 0.0316 µM.
As to `COc1ccc2c(S(=O)(=O)Nc3cccc4c3OC(F)(F)O4)c[nH]c2c1` [Compound I-72, N-(2,2-difluoro-1,3-benzodioxol-4-yl)-6-methoxy-1H-indole-3-sulfonamide], the IC50 is above 0.0316 µM.
With `O=S(=O)(Nc1cccc2nsnc12)c1c[nH]c2c3c(ccc12)CCC3` [Compound I-74] the figure was above 0.0316 µM; with `N#Cc1ccc2c(S(=O)(=O)Nc3cc(F)c(F)cc3F)c[nH]c2c1` [Compound I-75, 6-cyano-N-(2,4,5-trifluorophenyl)-1H-indole-3-sulfonamide], above 0.0316 µM.
Turning to `N#Cc1ccc(NS(=O)(=O)c2c[nH]c3ncc(Cl)cc23)cc1` [Compound I-77, 5-chloro-N-(4-cyanophenyl)-1H-pyrrolo[2,3-b]pyridine-3-sulfonamide], the IC50 is above 0.0316 µM.
On to `O=S(=O)(Nc1cc(F)ccc1F)c1c[nH]c2ncc(I)cc12` [Compound I-81, N-(2,5-difluorophenyl)-5-iodo-1H-pyrrolo[2,3-b]pyridine-3-sulfonamide], for which the IC50 was above 0.0316 µM.
With `O=S(=O)(Nc1ccc(F)cc1F)c1c[nH]c2ncc(I)cc12` [Compound I-82, N-(2,4-difluorophenyl)-5-iodo-1H-pyrrolo[2,3-b]pyridine-3-sulfonamide], the IC50 is above 0.0316 µM.
In the case of `C#Cc1ccc(NS(=O)(=O)c2c[nH]c3nc(Cl)ccc23)cc1` [Compound I-84, 6-chloro-N-(4-ethynylphenyl)-1H-pyrrolo[2,3-b]pyridine-3-sulfonamide] it was above 0.0316 µM; in that of `O=S(=O)(Nc1ccc(F)cc1F)c1c[nH]c2nc(Cl)ccc12` [Compound I-86, 6-chloro-N-(2,4-difluorophenyl)-1H-pyrrolo[2,3-b]pyridine-3-sulfonamide], above 0.0316 µM.
For the compound `O=S(=O)(Nc1cccc(F)c1Cl)c1c[nH]c2nc(Cl)ccc12` [Compound I-87, 6-chloro-N-(2-chloro-3-fluorophenyl)-1H-pyrrolo[2,3-b]pyridine-3-sulfonamide], the IC50 was above 0.0316 µM.
As to `O=S(=O)(Nc1cc(F)cc(F)c1)c1c[nH]c2nc(Br)ccc12` [Compound I-89, 6-bromo-N-(3,5-difluorophenyl)-1H-pyrrolo[2,3-b]pyridine-3-sulfonamide], the IC50 is above 0.0316 µM.
As for `O=S(=O)(Nc1cccc2c1OC(F)(F)O2)c1c[nH]c2ncc(I)cc12` [Compound I-99, N-(2,2-difluoro-1,3-benzodioxol-4-yl)-5-iodo-1H-pyrrolo[2,3-b]pyridine-3-sulfonamide], the IC50 was above 0.0316 µM.
With `O=S(=O)(Nc1ccc(I)cc1F)c1c[nH]c2ncc(I)cc12` [Compound I-101, N-(2-fluoro-4-iodophenyl)-5-iodo-1H-pyrrolo[2,3-b]pyridine-3-sulfonamide] the figure was above 0.0316 µM; with `O=S(=O)(Nc1cccc2c1OC(F)(F)O2)c1c[nH]c2nc(Br)ccc12` [Compound I-102, 6-bromo-N-(2,2-difluoro-1,3-benzodioxol-4-yl)-1H-pyrrolo[2,3-b]pyridine-3-sulfonamide], 0.00316 to 0.0316 µM.
For the compound `O=S(=O)(Nc1cc(F)c(F)cc1F)c1c[nH]c2ncc(I)cc12` [Compound I-103, 5-iodo-N-(2,4,5-trifluorophenyl)-1H-pyrrolo[2,3-b]pyridine-3-sulfonamide], the IC50 was above 0.0316 µM.
For the compound `N#Cc1ccc(NS(=O)(=O)c2c[nH]c3ccccc23)c(F)c1` [Compound I-105, N-(4-cyano-2-fluorophenyl)-1H-indole-3-sulfonamide], the IC50 is above 0.0316 µM.
In the case of `O=S(=O)(Nc1cccc2nsnc12)c1c[nH]c2ccccc12` [Compound I-106, N-(2,1,3-benzothiadiazol-4-yl)-1H-indole-3-sulfonamide] it was above 0.0316 µM; in that of `O=S(=O)(Nc1cccc2nsnc12)c1c[nH]c2c(Br)cccc12` [Compound I-111, N-(2,1,3-benzothiadiazol-4-yl)-7-bromo-1H-indole-3-sulfonamide], above 0.0316 µM; in that of `COc1cccc2c(S(=O)(=O)Nc3ccc(C#N)cc3F)c[nH]c12` [Compound I-115, N-(4-cyano-2-fluorophenyl)-7-methoxy-1H-indole-3-sulfonamide], above 0.0316 µM.
In the case of `N#Cc1cc(F)c(NS(=O)(=O)c2c[nH]c3c(Cl)cccc23)cc1F` [Compound I-117, 7-chloro-N-(4-cyano-2,5-difluorophenyl)-1H-indole-3-sulfonamide], the IC50 is above 0.0316 µM.
`N#Cc1ccc(NS(=O)(=O)c2c[nH]c3cc(F)c(F)cc23)cc1` [Compound I-120, N-(4-cyanophenyl)-5,6-difluoro-1H-indole-3-sulfonamide]: the IC50 was above 0.0316 µM.
With `Cc1ccc(NS(=O)(=O)c2c[nH]c3c2ccc2ccccc23)c(F)c1` [Compound I-121, N-(2-fluoro-4-methylphenyl)-1H-benzo[g]indole-3-sulfonamide] the figure was above 0.0316 µM; with `COCc1ccc(NS(=O)(=O)c2c[nH]c3cc(Cl)ccc23)cc1` [Compound I-122, 6-chloro-N-(4-(methoxymethyl)phenyl)-1H-indole-3-sulfonamide], above 0.0316 µM; with `O=S(=O)(Nc1ncccc1F)c1c[nH]c2cc(Cl)ccc12` [Compound I-128, 6-chloro-N-(3-fluoropyridin-2-yl)-1H-indole-3-sulfonamide], above 0.0316 µM.
Regarding `O=S(=O)(Nc1ccc(Br)c2c1OC(F)(F)O2)c1c[nH]c2cc(Cl)ccc12` [Compound I-130, N-(7-bromo-2,2-difluoro-1,3-benzodioxol-4-yl)-6-chloro-1H-indole-3-sulfonamide], the IC50 was above 0.0316 µM.
On to `O=S(=O)(Nc1c(F)ccc2nsnc12)c1c[nH]c2cc(Cl)ccc12` [Compound I-131, 6-chloro-N-(5-fluoro-2,1,3-benzothiadiazol-4-yl)-1H-indole-3-sulfonamide], for which the IC50 was above 0.0316 µM.
Turning to `O=S(=O)(Nc1cc2nsnc2cc1F)c1c[nH]c2nc(Cl)ccc12` [Compound I-144, 6-chloro-N-(6-fluoro-2,1,3-benzothiadiazol-5-yl)-1H-pyrrolo[2,3-b]pyridine-3-sulfonamide], the IC50 is 0.00316 to 0.0316 µM.
With `N#Cc1cc(F)c(NS(=O)(=O)c2c[nH]c3ccccc23)cc1F` [Compound I-145, N-(4-cyano-2,5-difluorophenyl)-1H-indole-3-sulfonamide], the IC50 was 0.00316 to 0.0316 µM.
Take `COCCOc1ccc2c(S(=O)(=O)Nc3cc(F)c(C#N)cc3F)c[nH]c2c1` [Compound I-146, N-(4-cyano-2,5-difluorophenyl)-6-(2-methoxyethoxy)-1H-indole-3-sulfonamide]: the IC50 was above 0.0316 µM.
